Laboratory results reported in ChEMBL document CHEMBL1129550, “Synthesis and cyclic GMP phosphodiesterase inhibitory activity of a series of 6-phenylpyrazolo[3,4-d]pyrimidones” (J Med Chem, 1996).

Assays:
[1] = target: T1, cGMP-specific 3',5'-cyclic phosphodiesterase (Homo sapiens, UniProt O76074); test: Inhibition of Phosphodiesterase 5 from human
[2] = target: cGMP-specific 3',5'-cyclic phosphodiesterase (Rattus norvegicus, UniProt O54735); test: Compound was tested for inhibition of stimulation of rat aortic smooth muscle cells (RSMC); type: functional
[3] = target: T1, cGMP-specific 3',5'-cyclic phosphodiesterase; test: Inhibition of Phosphodiesterase 5 from human at dose 10 uM

SMILES	IC50 [1]	EC50 [2]	inhibition [3]
CCCOc1ccc(NC(C)=O)cc1-c1nc2c(c(C)nn2C)c(=O)[nH]1	0.8 nM	40 nM	
CCCOc1ccc(N(C)C)cc1-c1nc2c(c(C)nn2C)c(=O)[nH]1	5 nM	300 nM	
CCCOc1ccccc1-c1nc(O)c2c[nH]nc2n1	150 nM	> 10000 nM	
CCCOc1ccc(-c2n[nH]c(-c3ccccc3)n2)cc1-c1nc2c(c(C)nn2C)c(=O)[nH]1	20 nM	< 100 nM	
CCCOc1ccc(NC(=O)OC)cc1-c1nc2c(c(C)nn2C)c(=O)[nH]1	2 nM	100 nM	
CCCOc1ccc(-c2cccs2)cc1-c1nc2c(c(C)nn2C)c(=O)[nH]1	5 nM	300 nM	
CCCOc1ccc(-c2csc(C)n2)cc1-c1nc2c(c(C)nn2C)c(=O)[nH]1	2.5 nM	200 nM	
CCCOc1ccc(NC(C)=O)cc1-c1nc2c(c(C)nn2CC)c(=O)[nH]1	2 nM	30 nM	
CCCOc1ccc(NC(=O)Nc2ccc(F)cc2)cc1-c1nc2c(c(C)nn2C)c(=O)[nH]1	0.2 nM	40 nM	
CCCOc1ccc(-c2csc(-c3cccnc3)n2)cc1-c1nc2c(c(C)nn2CC)c(=O)[nH]1	2 nM	< 100 nM	
CCCOc1ccccc1-c1nc2c(c(C)nn2Cc2ccccc2)c(=O)[nH]1	70 nM	350 nM	
CCCOc1ccccc1-c1nc2c(c(C)nn2C(C)(C)C)c(=O)[nH]1	20 nM	200 nM	
CCCOc1ccccc1-c1nc2onc(C)c2c(=O)[nH]1	100 nM	> 10000 nM	
CCCOc1ccccc1-c1nc2c(c(C)nn2CCC)c(=O)[nH]1	1 nM	150 nM	
CCCOc1ccc([N+](=O)[O-])cc1-c1nc2c(c(C)nn2C)c(=O)[nH]1	4 nM	100 nM	
CCCOc1ccc(N(C)C)cc1-c1nc2c(c(C)nn2CC)c(=O)[nH]1	4 nM	1500 nM	
CCCOc1ccc(C(=O)CN2CCOCC2)cc1-c1nc2c(c(C)nn2C)c(=O)[nH]1	4 nM	300 nM	
CCC[S+]([O-])c1ccccc1-c1nc2c(c(C)nn2C)c(=O)[nH]1 (stereo unspecified)			59%
CCCOc1ccc(-c2csc(-c3ccccc3)n2)cc1-c1nc2c(c(C)nn2C)c(=O)[nH]1	2.5 nM	200 nM	
CCCOc1ccc(-c2csc(-c3ccccc3)n2)cc1-c1nc2c(c(C)nn2CC)c(=O)[nH]1	3 nM	200 nM	
CCOc1ccccc1-c1nc2c(c(C)nn2C)c(=O)[nH]1	30 nM	2000 nM	
CCCOc1ccccc1-c1nc(O)c2scc(C)c2n1	80 nM	1500 nM	
CCCCn1nc(C)c2c(=O)[nH]c(-c3ccccc3OCCC)nc21	6 nM	900 nM	
CCCOc1ccc(NC(=O)c2cccs2)cc1-c1nc2c(c(C)nn2C)c(=O)[nH]1	1.5 nM	< 10 nM	
CCCOc1ccccc1-c1nc2ncncc2c(=O)[nH]1	300 nM	7500 nM	
CCCOc1ccccc1-c1nc2c(c(C)nn2CC)c(=O)[nH]1	2 nM	< 100 nM	
CCCOc1ccccc1-c1nc(O)c2sccc2n1	50 nM	1000 nM	
CCCOc1ccccc1-c1nc2c(c(C)nn2C)c(=O)[nH]1		200 nM	

SMILES	IC50 [1]	EC50 [2]	inhibition [3]
CCCOc1ccc(Nc2nnc(N)[nH]2)cc1-c1nc2c(c(C)nn2C)c(=O)[nH]1	5 nM	> 10000 nM	
CCCOc1ccccc1-c1nc(O)c2c(C)csc2n1	60 nM	700 nM	
CCCOc1ccccc1-c1nc2c(c(C)nn2CC(F)(F)F)c(=O)[nH]1	7 nM	1500 nM	
CCCOc1ccccc1-c1nc(O)c2ccsc2n1	100 nM	2500 nM	
Cc1nn(C)c2nc(-c3ccccc3OC(C)C)[nH]c(=O)c12	40 nM	1000 nM	
CCCOc1ccc(NC(=S)NC(=O)OCC)cc1-c1nc2c(c(C)nn2C)c(=O)[nH]1	2 nM	40 nM	
CCCOc1ccc(NC(=O)c2ccc(F)cc2)cc1-c1nc2c(c(C)nn2C)c(=O)[nH]1	2 nM	< 10 nM	
CCCOc1ccccc1-c1nc(O)c2c(C)snc2n1	30 nM	1500 nM	
CCCOc1ccccc1-c1nc2ccncc2c(=O)[nH]1	50 nM	10000 nM	
CCCOc1ccc(NS(C)(=O)=O)cc1-c1nc2c(c(C)nn2CC)c(=O)[nH]1	4 nM	200 nM	
CCCOc1ccc(NC(=S)NCC)cc1-c1nc2c(c(C)nn2C)c(=O)[nH]1	3 nM	60 nM	
CCCOc1ccc(NS(C)(=O)=O)cc1-c1nc2c(c(C)nn2C)c(=O)[nH]1	3 nM	350 nM	
CCCOc1ccc(-c2nc(C)cs2)cc1-c1nc2c(c(C)nn2C)c(=O)[nH]1	2.5 nM	450 nM	
CCCOc1ccccc1-c1nc2cnccc2c(=O)[nH]1	70 nM	2000 nM	
CCCOc1ccc(NC(N)=O)cc1-c1nc2c(c(C)nn2C)c(=O)[nH]1	2 nM	900 nM	
CCCOc1ccccc1-c1nc2nc[nH]c2c(=O)[nH]1		2000 nM	
CCCOc1ccc(-c2csc(C)n2)cc1-c1nc2c(c(C)nn2CC)c(=O)[nH]1		< 100 nM	
CCCOc1ccc([N+](=O)[O-])cc1-c1nc2c(c(C)nn2CC)c(=O)[nH]1	0.1 nM	50 nM	
CCCOc1ccc(N)cc1-c1nc2c(c(C)nn2CC)c(=O)[nH]1	7 nM	20 nM	
CCCOc1ccc(NC(N)=S)cc1-c1nc2c(c(C)nn2C)c(=O)[nH]1	1 nM	1000 nM	
CCCOc1ccc(-c2nc(C)cs2)cc1-c1nc2c(c(C)nn2CC)c(=O)[nH]1	2 nM	< 100 nM	
CCCOc1ccc(NC(=O)CN2CCN(C)CC2)cc1-c1nc2c(c(C)nn2C)c(=O)[nH]1	3.5 nM	400 nM	
CCCOc1ccc(N)cc1-c1nc2c(c(C)nn2C)c(=O)[nH]1	10 nM	300 nM	
CCCOc1ccc(-c2nccs2)cc1-c1nc2c(c(C)nn2C)c(=O)[nH]1	3 nM	< 100 nM	
CCCOc1ccc(-c2ccc(C)s2)cc1-c1nc2c(c(C)nn2C)c(=O)[nH]1	4 nM	< 100 nM	
CCCOc1ccc(-c2n[nH]c(-c3ccccc3)n2)cc1-c1nc2c(c(C)nn2CC)c(=O)[nH]1	1.7 nM	< 10 nM	
CCCOc1ccc(NC(=O)NCC)cc1-c1nc2c(c(C)nn2C)c(=O)[nH]1	3 nM	50 nM	
